SMILES strings stand for the structures. Calls of active or inactive are those of the source. How the calls were made is not given here.

In the test the target is Serine/threonine-protein kinase mTOR (Homo sapiens) (UniProt P42345). Briefly: binders of mTOR FRB domain, biophysical, NMR (AID 1648). Particulars: NMR binding to FRB domain, chemical shift.
Serine/threonine-protein kinase mTOR (Homo sapiens), sequence (P42345 2015-2114): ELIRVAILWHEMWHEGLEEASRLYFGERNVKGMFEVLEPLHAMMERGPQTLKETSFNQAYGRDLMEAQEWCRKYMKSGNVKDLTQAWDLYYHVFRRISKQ
Broadly, the Kd is a measure of binding affinity in units of concentration. For the molecule `O=C1C=C(O)c2ccccc2C1=O`, the Kd is > 4 mM (inactive).

Consider `O=C(Nc1nnc(-c2ccco2)o1)C1=COCCO1`, for which the Kd is > 4 mM (inactive).

Regarding `O=C(Nc1ccc2c(c1)OCO2)c1cnn2cccnc12`, the Kd was > 4 mM (inactive).

On to `CCc1ccc2oc(-c3cc(N)cc(C)c3O)nc2c1`, for which the Kd is > 4 mM (inactive).

Consider `Cc1cccn2cc(CNc3ccccc3)nc12`, for which the Kd is > 4 mM (inactive).

As for `Cc1ccc(NC(=O)CC2NCCNC2=O)c(C)c1` (stereo not drawn), the Kd was > 4 mM (inactive).

In the case of `CN(C)C(=O)c1ccccc1-c1ccccc1`, the Kd was > 4 mM (inactive).

Regarding `CC(=O)Oc1ccc2c(c1)c(C(C)=O)c(C)n2C`, the Kd is > 4 mM (inactive).

As for `O=C(Nc1cnccn1)c1ccncc1`, the Kd is > 4 mM (inactive).

With `NC(=O)CCn1cnc2ccccc21`, the Kd was > 4 mM (inactive).

As for `COc1cc(OC)c(-c2c(OC)cc(OC)cc2OC)c(OC)c1`, the Kd was > 4 mM (inactive).

For `NC(=O)N1CCc2ccccc21`, the Kd was > 4 mM (inactive).

With `Cc1nnsc1C(=O)Nc1ccc(C(N)=O)cc1`, the Kd was > 4 mM (inactive).

For `Cc1ccccc1NC(=O)/C=C\C(N)=O`, the Kd is > 4 mM (inactive).

As to `CCOC(=O)Nc1ccc2c(C)cc(=O)oc2c1`, the Kd was > 4 mM (inactive).

For the molecule `Cc1cc(C)nc(/N=C(/N)Nc2cccc(F)c2)n1`, the Kd is > 4 mM (inactive).

`COc1ccc(/C=C2/SC(N)=NC2=O)c(OC)c1`: the Kd is > 4 mM (inactive).

`CC(=O)n1nc(-c2cccnc2)nc1N`: the Kd was > 4 mM (inactive).

Consider `CN(C)c1ccc(C2CC(=O)CC(=O)C2)cc1`, for which the Kd was > 4 mM (inactive).

Turning to `Cc1ncc(C[n+]2csc3ccccc32)c(N)n1`, the Kd is > 4 mM (inactive).

Turning to `Cn1c(=O)c2c(ncn2CCN)n(C)c1=O`, the Kd was > 4 mM (inactive).

In the case of `Nc1ncnc(NCCCO)c1[N+](=O)[O-]`, the Kd is > 4 mM (inactive).

As to `NC(=O)CC1Sc2ccccc2NC1=O` (stereo not drawn), the Kd is > 4 mM (inactive).

As to `NC(=O)Cn1cnc(-c2ccc(F)cc2)c1`, the Kd was > 4 mM (inactive).

With `Nc1c2c3c(sc2nc(=O)n1N)CCCC3`, the Kd was > 4 mM (inactive).

For `CC(=O)c1cccc(NS(=O)(=O)N2CCCCC2)c1`, the Kd is > 4 mM (inactive).

As to `COc1ccc(-c2noc(-c3ccco3)n2)cc1OC`, the Kd is > 4 mM (inactive).

In the case of `Nc1ccc(Cl)nn1`, the Kd was > 4 mM (inactive).

For the molecule `NC(=O)CN1C(=O)c2cccc3cccc1c23`, the Kd was > 4 mM (inactive).

For `O=C(Nc1ccc(F)cc1F)c1ccco1`, the Kd was > 4 mM (inactive).

For `O=C(Nc1ccccc1N1CCCC1)c1cccnc1`, the Kd was > 4 mM (inactive).

Turning to `O=C(O)c1ccc(CN2CCCCC2)o1`, the Kd is > 4 mM (inactive).

As for `CC1Cc2nc(SCC(N)=O)n(C)c(=O)c2S1` (stereo not drawn), the Kd is > 4 mM (inactive).

As for `CC(=O)O[C@H]1C(=O)[C@@]2(C)C([C@H](OC(=O)c3ccccc3)[C@]3(O)C[C@H](OC(=O)[C@H](O)[C@@H](NC(=O)c4ccccc4)c4ccccc4)C(C)=C1C3(C)C)[C@]1(OC(C)=O)CO[C@@H]1C[C@@H]2O` (stereo partly drawn), the Kd is > 4 mM (inactive).

On to `Cc1ccc(N2C(=O)CCC2=O)cc1`, for which the Kd is > 4 mM (inactive).

Take `O=C1NC(=O)/C(=C\c2ccncc2)S1`: the Kd is > 4 mM (inactive).

Consider `COc1cccc(Oc2ccc(N)cc2)c1`, for which the Kd is > 4 mM (inactive).

`COc1ccc(-c2coc3cc(OC)cc(OC)c3c2=O)cc1`: the Kd was > 4 mM (inactive).

Turning to `CN(C)S(=O)(=O)NCc1ccc2c(c1)OCO2`, the Kd was > 4 mM (inactive).

On to `Cn1c(=O)n(-c2cccc(Cl)c2)c(=O)n1C`, for which the Kd was > 4 mM (inactive).

With `Cc1cc(=O)n2ncn(Cc3ccccc3)c2n1`, the Kd is > 4 mM (inactive).

Turning to `NC1=NC(=O)/C(=C/c2ccc(O)c(Cl)c2)S1`, the Kd was > 4 mM (inactive).

As to `CCc1nnsc1C(=O)Nc1nccs1`, the Kd was > 4 mM (inactive).

On to `O=C(c1ccccc1)c1ccccc1C(=O)N1CCOCC1`, for which the Kd was > 4 mM (inactive).

With `COCCn1c(SC)nc2c1c(=O)[nH]c(=O)n2C`, the Kd was > 4 mM (inactive).

Regarding `CSc1ncc(CO)n1Cc1ccccc1`, the Kd was > 4 mM (inactive).

`Cc1nnsc1C(=O)N(C)c1ccccc1`: the Kd is > 4 mM (inactive).

`CN1CCC(N2CCN(C)CC2)CC1`: the Kd is > 4 mM (inactive).

On to `CN1C2CCC1CC(OC(=O)C(CO)c1ccccc1)C2` (stereo not drawn), for which the Kd is > 4 mM (inactive).

As for `CNC(=O)C(=O)Nc1c(C)cccc1C`, the Kd is > 4 mM (inactive).

As for `Nc1scc[n+]1CC(=O)[O-]`, the Kd is > 4 mM (inactive).

On to `C(=C\c1ccccc1)/C=N/n1cnnc1`, for which the Kd is > 4 mM (inactive).

Consider `Cn1nc(-c2cccs2)cc1N`, for which the Kd is > 4 mM (inactive).

For `CC1(C)N=C2C(=[N+]1[O-])CCC/C2=N\O`, the Kd is > 4 mM (inactive).

With `O=C(NC1=NCCS1)c1cccc(F)c1`, the Kd was > 4 mM (inactive).

Regarding `Oc1ccc2nonc2c1`, the Kd is > 4 mM (inactive).

For the molecule `C[C@H](CCC(=O)O)[C@H]1CCC2C3C(CC[C@@]21C)[C@@]1(C)CC[C@@H](O)C[C@H]1C[C@@H]3O` (stereo partly drawn), the Kd is > 4 mM (inactive).

As for `CC[C@@]1(O)C[C@H](O[C@H]2C[C@H](N(C)C)[C@H](O)[C@H](C)O2)c2c(cc3c(c2O)C(=O)c2c(O)cccc2C3=O)[C@H]1C(=O)OC`, the Kd is > 4 mM (inactive).

In the case of `O=C(c1ccco1)N1CCCN(C(=O)c2ccco2)CC1`, the Kd is > 4 mM (inactive).

As to `CC(CCC(=O)O)[C@H]1CCC2C3CC[C@@H]4CCCC[C@]4(C)C3CC[C@@]21C` (stereo partly drawn), the Kd was > 4 mM (inactive).

Consider `CC(=O)Nc1ccc(-c2ccc3nncn3n2)cc1`, for which the Kd was > 4 mM (inactive).

Turning to `Cc1cc(C)n2nc(C(=O)Nc3cccnc3)nc2n1`, the Kd was > 4 mM (inactive).

`O=C(O)CSc1cccc2cccnc12`: the Kd is > 4 mM (inactive).

On to `NC(=O)C1CCN(C(=O)c2ccco2)CC1`, for which the Kd was > 4 mM (inactive).

`O=C(Nc1ccon1)c1ccccc1Cl`: the Kd is > 4 mM (inactive).

Take `c1ccc(C2NCCc3[nH]cnc32)cc1` (stereo not drawn): the Kd is > 4 mM (inactive).

For `Cc1cccc(CSc2nncc(=O)[nH]2)c1`, the Kd was > 4 mM (inactive).

Consider `CC(=O)Oc1c2c(c3c(c1CC=C(C)C)O[C@]14C(=C[C@@H]5CC1C(C)(C)OC4(C/C=C(\C)C(=O)O)C5=O)C3=O)OC(C)(CCC=C(C)C)C=C2` (stereo partly drawn), for which the Kd is > 4 mM (inactive).

As for `Cc1ccccc1NS(=O)(=O)c1ccc(F)cc1`, the Kd is > 4 mM (inactive).

In the case of `CNc1ccccc1C(=O)O`, the Kd is > 4 mM (inactive).

On to `O=C(O)C1=C[C@@H](O)[C@@H](O)[C@H](O)C1`, for which the Kd is > 4 mM (inactive).

Consider `O=c1c2ccccc2ncn1C1CCCCC1`, for which the Kd was > 4 mM (inactive).

Consider `O=C1C2C3CCC(O3)C2C(=O)N1c1cccc(F)c1` (stereo not drawn), for which the Kd is > 4 mM (inactive).

Consider `C=C1CCC2C(CC2(C)C)C(=C)CC/C1=N/O` (stereo not drawn), for which the Kd is > 4 mM (inactive).

On to `N=Cc1c(O)n(-c2cccc(Cl)c2)c(=O)[nH]c1=O`, for which the Kd was > 4 mM (inactive).

`CCC(=O)Nc1ccccc1NC(C)=O`: the Kd was > 4 mM (inactive).

For the molecule `CCCn1cnn2c(=O)cc(C)nc12`, the Kd was > 4 mM (inactive).

Take `NCc1cccc2c1OCCCO2`: the Kd was > 4 mM (inactive).

As to `COc1ccc(NC(=O)CCCC(=O)O)c(OC)c1`, the Kd was > 4 mM (inactive).

As to `CCN1CCN(c2ncnc3c2nnn3C)CC1`, the Kd is > 4 mM (inactive).

As for `NCc1ccc(-c2csnn2)cc1`, the Kd was > 4 mM (inactive).

Consider `CSc1nnc(CN2CCSCC2)n1C`, for which the Kd is > 4 mM (inactive).

With `CN1CCN(c2ccc(CN)cc2)CC1`, the Kd was > 4 mM (inactive).

As for `CC(=O)Nc1ccc2c(c1)CCCC2=O`, the Kd was > 4 mM (inactive).

For the molecule `Cc1ccc(SCc2cc(=O)n3[nH]c(C)nc3n2)cc1`, the Kd is > 4 mM (inactive).

For the molecule `CN(C)Cc1c(N)cccc1O`, the Kd was > 4 mM (inactive).

As for `Cc1cccc(N2C(=O)CC(=O)NC2=O)c1`, the Kd is > 4 mM (inactive).

As for `Cn1cnc2c(=O)[nH]cc([N+](=O)[O-])c21`, the Kd is > 4 mM (inactive).

In the case of `COC(=O)Nc1nc2c(s1)CCCC2`, the Kd is > 4 mM (inactive).

For the molecule `CCOC(=O)c1c(C)n([O-])c2ccccc2[n+]1=O`, the Kd was > 4 mM (inactive).

`Cc1cc2cc(N)ccc2[nH]1`: the Kd was > 4 mM (inactive).

As to `CC(C)NC(=O)c1cc(=O)n(C)c(=O)n1C`, the Kd is > 4 mM (inactive).

For `CC(=O)O[C@@H]1CC2C(C)(C)[C@@H](O)CC[C@]2(C)C2CC[C@@]3(C)[C@H](c4ccoc4)OC(=O)[C@H]4O[C@]43[C@@]21C` (stereo partly drawn), the Kd is > 4 mM (inactive).

Regarding `Cc1ccccc1NC(=O)C1CCC(=O)N1` (stereo not drawn), the Kd is > 4 mM (inactive).

Regarding `Cc1ccc(-n2cnnn2)c2cccnc12`, the Kd was > 4 mM (inactive).

Turning to `CC(=O)NC12CC3CC(CC(O)(C3)C1)C2`, the Kd is > 4 mM (inactive).

On to `O=C(O)C1CSC(c2ccc(Cl)cc2)N1` (stereo not drawn), for which the Kd was > 4 mM (inactive).

As to `COC(=O)c1[nH]c2ccccc2c1C(=O)OC`, the Kd is > 4 mM (inactive).

In the case of `Cc1nc2[nH]onc2c2nccc(=O)c12`, the Kd is > 4 mM (inactive).

Take `CN1C(=O)Cc2cc(S(N)(=O)=O)ccc21`: the Kd is > 4 mM (inactive).

For the molecule `CCOC(=O)c1cnc2n(c1=O)CCS2`, the Kd is > 4 mM (inactive).

With `CC1(O)CC2C(CC1O)C2(C)C` (stereo not drawn), the Kd is > 4 mM (inactive).

As for `COc1ccc(-c2cc(=O)c3c(OC)c(OC)c(OC)c(OC)c3o2)cc1`, the Kd is > 4 mM (inactive).

For the origin of these results see PubChem BioAssay AID1648 (Sanford-Burnham Center for Chemical Genomics, 2009).
